Test results: patent US20070293518A1, “PROLONGED IMPROVEMENT OF RENAL FUNCTION COMPRISING INFREQUENT ADMINISTRATION OF AN AA1RA” (priority 2006, published 2007)
Values joined by “and” are separate entries in the source; they are usually repeats but may differ in a detail not shown here. Equal values may be shown once. Read-outs that look alike come from different tables or passages of the source. Marks after values point to notes of the source that are not given here.

What was measured:
[1] = test system: subjects hospitalized due to acute CHF requiring intravenous diuretic therapy; assay: Study in subjects hospitalized due to acute CHF requiring intravenous diuretic therapy: serum creatinine, worsening renal function; assay type: in vivo, human
Experimental: More than 300 subjects hospitalized due to acute CHF requiring intravenous diuretic therapy to treat fluid overload, and presenting with creatinine clearance values between 20 to 80 mL/min were identified. The subjects were randomized to receive either placebo, or 10 mg, 20 mg or 30 mg intravenous KW-3902 per day. The subjects' BNP levels, NT-Pro-BNP, serum creatinine, weight, and NYHA Class were measured.
On day 1, KW-3902 (or placebo) was co-administered with intravenous furosemide (LASIX™). The specified dose of KW-3902 (or placebo) was infused over a four hour time period. Subjects received therapy for up to three days, as required. Serum creatinine, weight, dyspnea, and worsening heart failure were assessed daily by the investigator on days 1 through 14. Worsening renal function was defined as a ≧0.3 mg/dL increase in serum creatinine.
A subgroup of subjects received a single dose of KW-3902 and LASIX or a single dose of placebo and LASIX.

[2] = test system: heart failure patients with renal impairment who are treated with diuretics; assay: Double-blind cross-over study in stable CHF: GFR, RPF, urine volume; assay type: in vivo, human; conditions: for GFR % Difference Between KW-3902 and Placebo / GFR Percent Change from Baseline / RPF % Difference Between KW-3902 and Placebo / RPF Percent Change from Baseline: 30 mg KW-3902 IV plus 80 mg IV furosemide
Experimental: A double-blind, multi-center, cross-over designed, controlled study was conducted as follows: Approximately 23 outpatient subjects were randomized. […] Subjects received at least two treatments that were at least three days apart, with a median interval between treatments of 6 days. […] Patients that received KW-3902 on the first visit received placebo on the second visit, and vice versa. Infusions of lothalamate ([…]) and para-aminohippurate were administered according to standard protocols to assess glomerular filtration rate (GFR) and renal plasma flow (RPF), respectively. Iothalamate and para-aminohippurate were administered over 180 minutes before treatment with KW-3902/placebo and 8 hours after treatment with KW-3902/placebo. Urine and plasma were collected for GFR and RPF at baseline and 2, 4, and 8 hours. The mean GFR at baseline was 61 mL/min.

[3] = test system: subjects with congestive heart failure refractory to standard diuretic therapy; assay: Double-blind placebo-controlled study in CHF patients refractory to standard diuretic therapy: creatinine clearance; assay type: in vivo, human; conditions: 30 mg intravenous infusion with current diuretic therapy; 0-24 hours; FIG. 4
Experimental: A double-blind placebo-controlled study was conducted as follows: 35 subjects with congestive heart failure that were refractory to standard diuretic therapy were identified. […] The patients' diuretic therapy was stopped at least 5 hours before prior to the treatment. Staring at −3 hours, urine was collected for volume and creatinine clearance measurements. […] Blood and urine samples were colleted at 0, 3, 6, 9, 12 and 24 hours following study drug administration.

[4] = test system: patients with CHF and renal impairment; assay: Double-blind placebo-controlled study in CHF patients with acute fluid overload and renal impairment: sustained worsening renal function; assay type: in vivo, human; conditions: 2.5, 15, 30 or 60 mg IV days 1 through 3; FIG. 6
Experimental: Worsening renal function was defined as a ≧0.3 mg/dL increase in serum creatinine.

[5] = Pharmacokinetic study of KW-3902, single intravenous dose, serum concentrations; assay type: in vivo; conditions: human; for clearance: read-out: CL∞ Mean (converted); for half-life: read-out: T1/2 Mean (converted); for Tmax: read-out: Tmax Median; for Vd: read-out: Vss∞ Mean
Experimental: Individuals received a single intravenous dose of 1 mg, 2.5 mg. 5 mg, 10 mg, 20 mg, 30 mg 40 mg, 50 mg or 60 mg KW-3902 as indicated. The serum concentrations of KW-3902 and its M1-trans metabolite were measured using routine analytical methods. Routine mathematical formulae were used to determine pharmacokinetic values.

[6] = serum, individual subjects of subgroup, single dose of KW-3902 and LASIX
[7] = 1 mg, single intravenous dose 1 mg, Group 1, serum
[8] = 2.5 mg, single intravenous dose 2.5 mg, Group 1 (n = 4)
[9] = 2.5 mg, single intravenous dose 2.5 mg, Group 2 (n = 8)
[10] = 5 mg, single intravenous dose 5 mg, Group 2, serum
[11] = 10 mg, single intravenous dose 10 mg, Group 2, serum
[12] = 20 mg, single intravenous dose 20 mg, Group 3, serum
[13] = 30 mg, single intravenous dose 30 mg, Group 3, serum
[14] = 40 mg, single intravenous dose 40 mg, Group 4, serum
[15] = 50 mg, single intravenous dose 50 mg, Group 4, serum
[16] = 60 mg, single intravenous dose 60 mg, Group 4, serum

SMILES: CCCn1c(=O)c2[nH]c(C34CC5CC(CC3C5)C4)nc2n(CCC)c1=O [KW-3902, 8-(3-noradamantyl)-1,3-dipropylxanthine]
- Change in mean serum creatinine levels (in words) ([1]; 30 mg per day IV up to three days, Day 14, FIG. 8): overall decrease in serum creatinine levels
- Increase in the percentage of individuals with worsening renal failure, compared to placebo ([1]; days 2, 3, 4, 5, 6, and 7, FIG. 7): lower
- Δ Creatinine ([1]; serum, Day 14 vs Day 1, individual subjects of subgroup, single dose of KW-3902 and LASIX): −0.5 mg/dL and 0 mg/dL (2×) and 0.2 mg/dL and −0.2 mg/dL and −0.1 mg/dL
- Day 1 Creatinine [1, 6]: 1.7 mg/dL and 1.4 mg/dL and 1.15 mg/dL and 2.9 mg/dL and 1.6 mg/dL and 3.2 mg/dL and 1.0 mg/dL
- Day 14 Creatinine [1, 6]: 1.2 mg/dL and 1.4 mg/dL and 1.3 mg/dL and 2.7 mg/dL (2×) and 1.0 mg/dL
- Mean change in serum creatinine levels (in words) ([1]; single dose subgroup (30 mg KW-3902), Day 14): mean decrease in serum creatinine levels
- GFR % Difference Between KW-3902 and Placebo ([2]; 0-2 hours): 27.3* %
- GFR Percent Change from Baseline ([2]; 0-2 hours): 22.1* Percent
- RPF % Difference Between KW-3902 and Placebo ([2]; 0-2 hours): 27.7* %
- RPF Percent Change from Baseline ([2]; 0-2 hours): 33.3* Percent
- GFR % Difference Between KW-3902 and Placebo ([2]; 0-8 hours): 23.4* %
- GFR Percent Change from Baseline ([2]; 0-8 hours): 32.1* Percent
- RPF % Difference Between KW-3902 and Placebo ([2]; 0-8 hours): 24.9* %
- RPF Percent Change from Baseline ([2]; 0-8 hours): 47.7** Percent
- GFR % Difference Between KW-3902 and Placebo ([2]; 2-4 hours): 7.6%
- GFR Percent Change from Baseline ([2]; 2-4 hours): 8.5%
- RPF % Difference Between KW-3902 and Placebo ([2]; 2-4 hours): 12.7%
- RPF Percent Change from Baseline ([2]; 2-4 hours): 41.7%
- GFR % Difference Between KW-3902 and Placebo ([2]; 4-8 hours): 30.1* %
- GFR Percent Change from Baseline ([2]; 4-8 hours): 41.3* Percent
- RPF % Difference Between KW-3902 and Placebo ([2]; 4-8 hours): 30.0* %
- RPF Percent Change from Baseline ([2]; 4-8 hours): 55.8* Percent
- Effect on GFR (in words) ([2]; FIG. 2): statistically significant increase
- Effect on renal plasma flow (in words) ([2]; FIG. 3): statistically significant increase
- Urine volume over 8 hours ([2]; KW-3902 plus furosemide): 2995.1 ± 1138.17 mL
- Persistence of the increase in GFR noted at 8 hours ([2]; subgroup that received KW-3902 on the first visit, follow-up baseline (median 6 days), FIG. 5): persisted at the time of follow-up baseline
- Change in creatinine clearance from baseline (in words) [3]: improvement in renal function over time
- Sustained worsening renal function (≧0.3 mg/dL increase in serum creatinine), in words [4]: improves renal function
- AUC(0-inf) [5, 7]: 31.5 ng·h/mL
- Cmax [5, 7]: 12.9 ng/mL
- MRT inf [5, 7]: 2.6 h
- clearance [5, 7]: 610 mL/min
- half-life [5, 7]: 2.8 h
- Tmax [5, 7]: 0.5 h
- Vd [5, 7]: 58.9 L
- AUC(0-inf) [5, 8]: 97.6 ng·h/mL
- Cmax [5, 8]: 35.6 ng/mL
- MRT inf [5, 8]: 8.1 h
- clearance [5, 8]: 443 mL/min
- half-life [5, 8]: 11.4 h
- Tmax [5, 8]: 1.2 h
- Vd [5, 8]: 185 L
- AUC(0-inf) [5, 9]: 84 ng·h/mL
- Cmax [5, 9]: 35.9 ng/mL
- MRT inf [5, 9]: 4.7 h
- clearance [5, 9]: 518 mL/min
- half-life [5, 9]: 7.3 h
- Tmax [5, 9]: 0.5 h
- Vd [5, 9]: 117 L
- AUC(0-inf) [5, 10]: 221 ng·h/mL
- Cmax [5, 10]: 90.9 ng/mL
- MRT inf [5, 10]: 5.8 h
- clearance [5, 10]: 435 mL/min
- half-life [5, 10]: 9.6 h
- Tmax [5, 10]: 0.5 h
- Vd [5, 10]: 106 L
- AUC(0-inf) [5, 11]: 496 ng·h/mL
- Cmax [5, 11]: 186 ng/mL
- MRT inf [5, 11]: 8.7 h
- clearance [5, 11]: 350 mL/min
- half-life [5, 11]: 14.4 h
- Tmax [5, 11]: 0.5 h
- Vd [5, 11]: 161 L
- AUC(0-inf) [5, 12]: 898 ng·h/mL
- Cmax [5, 12]: 294 ng/mL
- MRT inf [5, 12]: 11.5 h
- clearance [5, 12]: 390 mL/min
- half-life [5, 12]: 18 h
- Tmax [5, 12]: 1.2 h
- Vd [5, 12]: 244 L
- AUC(0-inf) [5, 13]: 1190 ng·h/mL
- Cmax [5, 13]: 457 ng/mL
- MRT inf [5, 13]: 7.7 h
- clearance [5, 13]: 455 mL/min
- half-life [5, 13]: 14.7 h
- Tmax [5, 13]: 0.6 h
- Vd [5, 13]: 189 L
- AUC(0-inf) [5, 14]: 1870 ng·h/mL
- Cmax [5, 14]: 452 ng/mL
- MRT inf [5, 14]: 9.4 h
- clearance [5, 14]: 372 mL/min
- half-life [5, 14]: 16.1 h
- Tmax [5, 14]: 2.2 h
- Vd [5, 14]: 178 L
- AUC(0-inf) [5, 15]: 2120 ng·h/mL
- Cmax [5, 15]: 579 ng/mL
- MRT inf [5, 15]: 7.9 h
- clearance [5, 15]: 427 mL/min
- half-life [5, 15]: 15.5 h
- Tmax [5, 15]: 1.6 h
- Vd [5, 15]: 166 L
- AUC(0-inf) [5, 16]: 2720 ng·h/mL
- Cmax [5, 16]: 682 ng/mL
- MRT inf [5, 16]: 9.2 h
- clearance [5, 16]: 378 mL/min
- half-life [5, 16]: 16.4 h
- Tmax [5, 16]: 2.2 h
- Vd [5, 16]: 176 L
